The target in assay [1] is T1, ureG (uncultured rumen bacterium, UniProt A0A6M3RDS9).
T1 construct: Strep-tagged UreG (GenBank ID: MN660252)
The experiment in a line: malachite green GTPase assay, single concentration […], almost […] inhibition. It is filed as biochemical.

The target of assay [2] is T2, (UniProt A0A6M3RDS9).
T2 construct: gene ureG; Strep-tagged UreG (GenBank ID: MN660252)
The experiment in a line: malachite green GTPase assay (IC50); Lineweaver-Burk Ki […]; CD change; ITC of nickel binding in its presence. The class given is biochemical, uncultured rumen bacterium.

The structures appear in SMILES notation. pIC50: −log10 of the molar value.

One may read the inhibition as the share of the control response that was lost under treatment. Read a low inhibition as little suppression. In general, pIC50 refers to the negative decadic logarithm of the IC50, by convention in mol/L. A high value points to a low IC50.

T1 sequence (A0A6M3RDS9 1-203): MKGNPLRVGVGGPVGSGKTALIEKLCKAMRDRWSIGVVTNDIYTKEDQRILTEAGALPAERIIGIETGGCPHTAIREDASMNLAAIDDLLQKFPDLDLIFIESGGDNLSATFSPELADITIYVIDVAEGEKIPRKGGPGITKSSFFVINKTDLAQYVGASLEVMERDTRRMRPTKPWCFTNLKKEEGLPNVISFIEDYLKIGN
T2 sequence (A0A6M3RDS9 1-203): as above

Consider `C=C(C)[C@@H]1CC[C@]2(C(=O)O)CC[C@]3(C)[C@H](CC[C@@H]4[C@@]5(C)CC[C@H](O)[C@@](C)(CO)[C@@H]5CC[C@]43C)[C@@H]12` [anemosapogenin], for which the inhibition at 100 µM in assay [1] is about 100%.
In the case of `O=C(/C=C/c1ccc(O)c(O)c1)O[C@H]1[C@H](O)C[C@](O)(C(=O)O)C[C@H]1OC(=O)/C=C/c1ccc(O)c(O)c1` [isochlorogenic acid B], the inhibition at 100 µM in assay [1] is about 100%.
As for `COc1ccc2c(c[n+](C)c3c4cc5c(cc4ccc23)OCO5)c1OC` [chelerythrine chloride], the pIC50 in assay [2] was 4.74.
